Measurements from patent publication US9765018B2, “IDO inhibitors” (BRISTOL-MYERS SQUIBB COMPANY, priority 2013, dated 2017).

biological target: T1, IDO (Homo sapiens (Human), UniProt P14902); experiment: LLE_IDO_ABS_DR (IDO assay, method not described); details: not given
T1 sequence (P14902 whole entry): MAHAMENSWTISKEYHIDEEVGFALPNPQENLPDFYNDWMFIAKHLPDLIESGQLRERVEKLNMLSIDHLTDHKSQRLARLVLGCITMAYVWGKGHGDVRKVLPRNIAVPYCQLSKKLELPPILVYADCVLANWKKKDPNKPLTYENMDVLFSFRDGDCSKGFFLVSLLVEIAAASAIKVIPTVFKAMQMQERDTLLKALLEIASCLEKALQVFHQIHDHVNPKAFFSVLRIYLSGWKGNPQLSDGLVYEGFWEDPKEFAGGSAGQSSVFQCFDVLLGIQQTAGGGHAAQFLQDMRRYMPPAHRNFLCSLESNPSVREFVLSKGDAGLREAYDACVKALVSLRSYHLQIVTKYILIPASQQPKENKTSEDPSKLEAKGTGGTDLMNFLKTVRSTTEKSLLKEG

Compared with `Cc1ccc(NC(=O)Nc2cc(-c3ccccc3-c3nn[nH]n3)ccc2OC(C(C)C)C(C)C)cc1` [Example 9, 1-(4-((2,4-Dimethylpentan-3-yl)oxy)-2′-(1H-tetrazol-5-yl)-[1,1′-biphenyl]-3-yl)-3-(p-tolyl)urea], `Cc1ccc(NC(=O)Nc2cc(-c3ccccc3C(=O)O)ccc2OC(C(C)C)C(C)C)cc1` [Example 10, 4′-((2,4-Dimethylpentan-3-yl)oxy)-3′-(3-(p-tolyl)ureido)-[1,1′-biphenyl]-2-carboxylic acid] is 24-fold higher in IC50: 30 nM for the first, 720 nM for the second.

Going from `CC(C)C(Oc1ccc(-c2ccccc2-c2nnn[nH]2)cc1NC(=O)Nc1ccccc1F)C(C)C` [Example 11, 1-(4-((2,4-Dimethylpentan-3-yl)oxy)-2′-(1H-tetrazol-5-yl)-[1,1′-biphenyl]-3-yl)-3-(2-fluorophenyl)urea] to `COc1ccc(-c2ccc(OC(C(C)C)C(C)C)c(NC(=O)Nc3ccccc3F)c2)cc1C(=O)O` [Example 12, 4′-((2,4-Dimethylpentan-3-yl)oxy)-3′-(3-(2-fluorophenyl)ureido)-4-methoxy-[1,1′-biphenyl]-3-carboxylic acid], the IC50 rises from 160 nM to 820 nM (5.1-fold).

Compared with `CCCC(CCC)Oc1ccc(-c2ccccc2-c2nn[nH]n2)cc1NC(=O)Nc1ccc(C)cc1` [Example 13, 1-(4-(Heptan-4-yloxy)-2′-(1H-tetrazol-5-yl)-[1,1′-biphenyl]-3-yl)-3-(p-tolyl)urea], `CCCC(CCC)Oc1ccc(-c2ccccc2C(=O)O)cc1NC(=O)Nc1ccc(C)cc1` [Example 14, 4′-(Heptan-4-yloxy)-3′-(3-(p-tolyl)ureido)-[1,1′-biphenyl]-2-carboxylic acid] is 20-fold higher in IC50: 30 nM for the first, 600 nM for the second.

`CCCC(CCC)Oc1ccc(-c2cc(F)ccc2C(=O)O)cc1NC(=O)Nc1ccc(C)cc1` [Example 15, 5-Fluoro-4′-(heptan-4-yloxy)-3′-(3-(p-tolyl)ureido)-[1,1′-biphenyl]-2-carboxylic acid] and `CCCOc1c(CCC)cc(-c2cc(F)ccc2C(=O)O)cc1NC(=O)Nc1ccc(C)cc1` [Example 18, 5-Fluoro-4′-propoxy-3′-propyl-5′-(3-(p-tolyl)ureido)-[1,1′-biphenyl]-2-carboxylic acid] are within 1.5-fold of each other in IC50: 380 nM for the first, 310 nM for the second.

Going from `CCCOc1c(CCC)cc(-c2ccccc2C(=O)O)cc1NC(=O)Nc1ccc(C)cc1` [Example 17, 4′-Propoxy-3′-propyl-5′-(3-(p-tolyl)ureido)-[1,1′-biphenyl]-2-carboxylic acid] to `CCCCc1cc(-c2ccccc2C(=O)O)cc(NC(=O)Nc2ccc(C)cc2)c1OCCC` [Example 23, 3′-Butyl-4′-propoxy-5′-(3-(p-tolyl)ureido)-[1,1′-biphenyl]-2-carboxylic acid], the IC50 falls from 200 nM to 130 nM (1.5-fold). The second is the more potent here.

`C/C=C/Cc1cc(-c2ccccc2C(=O)O)cc(NC(=O)Nc2ccc(C)cc2)c1OCCC` [Example 20, (E)-3′-(But-2-en-1-yl)-4′-propoxy-5′-(3-(p-tolyl)ureido)-[1,1′-biphenyl]-2-carboxylic acid] and `C/C=C/Cc1cc(-c2cc(F)ccc2C(=O)O)cc(NC(=O)Nc2ccc(C)cc2)c1OCCC` [Example 21, (E)-3′-(But-2-en-1-yl)-5-fluoro-4′-propoxy-5′-(3-(p-tolyl)ureido)-[1,1′-biphenyl]-2-carboxylic acid] are within 1.5-fold of each other in IC50: 170 nM for the first, 150 nM for the second.

Compared with `CCCCc1cc(-c2cc(F)ccc2C(=O)O)cc(NC(=O)Nc2ccc(C)cc2)c1OCCC` [Example 24], `CCCCc1cc(-c2cc(F)ccc2C(=O)O)cc(NC(=O)Nc2ccc(C)cc2)c1OCc1ccccc1` [Example 40, 4′-(Benzyloxy)-3′-butyl-5-fluoro-5′-(3-p-tolylureido)biphenyl-2-carboxylic acid] is 1.6-fold higher in IC50: 80 nM for the first, 130 nM for the second. The first is the more potent here.

`C/C=C/Cc1cc(-c2ccccc2-c2nnn[nH]2)cc(NC(=O)Nc2ccc(C)cc2)c1OCc1ccccc1` [Example 25, (E)-1-(4-(Benzyloxy)-5-(but-2-en-1-yl)-2′-(1H-tetrazol-5-yl)-[1,1′-biphenyl]-3-yl)-3-(p-tolyl)urea] and `CCCOc1c(C/C=C/c2ccccc2)cc(-c2ccccc2-c2nnn[nH]2)cc1NC(=O)Nc1ccc(C)cc1` [Example 34, (E)-1-(5-Cinnamyl-4-propoxy-2′-(1H-tetrazol-5-yl)biphenyl-3-yl)-3-p-tolylurea] are within 1.5-fold of each other in IC50: 160 nM for the first, 170 nM for the second.

`C/C=C/Cc1cc(-c2ccccc2C(=O)O)cc(NC(=O)Nc2ccc(C)cc2)c1OCc1ccccc1` [Example 26, (E)-4′-(Benzyloxy)-3′-(but-2-en-1-yl)-5′-(3-(p-tolyl)ureido)-[1,1′-biphenyl]-2-carboxylic acid] and `C/C=C/Cc1cc(-c2cc(F)ccc2C(=O)O)cc(NC(=O)Nc2ccc(C)cc2)c1OCc1ccccc1` [Example 27, (E)-4′-(Benzyloxy)-3′-(but-2-en-1-yl)-5-fluoro-5′-(3-(p-tolyl)ureido)-[1,1′-biphenyl]-2-carboxylic acid] are within 1.5-fold of each other in IC50: 650 nM for the first, 850 nM for the second.

First: Cc1ccc(NC(=O)Nc2cc(-c3ccccc3-c3nnn[nH]3)ccc2OCc2ccccc2)cc1 [Example 28, 1-(4-(Benzyloxy)-2′-(1H-tetrazol-5-yl)-[1,1′-biphenyl]-3-yl)-3-(p-tolyl)urea]
Second: CCCOc1c(CCCc2ccccc2)cc(-c2ccccc2-c2nnn[nH]2)cc1NC(=O)Nc1ccc(C)cc1 [Example 37, 1-(5-(3-Phenylpropyl)-4-propoxy-2′-(1H-tetrazol-5-yl)biphenyl-3-yl)-3-p-tolylurea]
The IC50 of the first is 1.9-fold higher: 250 nM for the first, 130 nM for the second.

`CCCOc1c(/C=C/C=C(F)F)cc(-c2cc(F)ccc2C(=O)O)cc1NC(=O)Nc1ccc(C)cc1` [Example 33, (E)-3′-(4,4-Difluorobuta-1,3-dien-1-yl)-5-fluoro-4′-propoxy-5′-(3-(p-tolyl)ureido)-[1,1′-biphenyl]-2-carboxylic acid] and `CCCOc1c(C/C=C/c2ccccc2)cc(-c2ccccc2C(=O)O)cc1NC(=O)Nc1ccc(C)cc1` [Example 35, 3′-Cinnamyl-4′-propoxy-5′-(3-p-tolylureido)biphenyl-2-carboxylic acid] are within 1.5-fold of each other in IC50: 110 nM for the first, 100 nM for the second.

Compared with `CCCOc1c(C/C=C/c2ccccc2)cc(-c2ccccc2-c2nnn[nH]2)cc1NC(=O)Nc1ccccc1F` [Example 38, (E)-1-(5-Cinnamyl-4-propoxy-2′-(1H-tetrazol-5-yl)biphenyl-3-yl)-3-(2-fluorophenyl)urea], `CCCOc1c(CCCc2ccccc2)cc(-c2ccccc2-c2nnn[nH]2)cc1NC(=O)Nc1ccccc1F` [Example 39, 1-(2-Fluorophenyl)-3-(5-(3-phenylpropyl)-4-propoxy-2′-(1H-tetrazol-5-yl)biphenyl-3-yl)urea] is 4.2-fold lower in IC50: 210 nM for the first, 50 nM for the second.

`CC(C)(C)c1ccccc1Oc1ccc(-c2ccc(F)cc2-c2nnn[nH]2)cc1NC(=O)Nc1ccccc1Cl` [Example 195, 1-(4-(2-tert-butylphenoxy)-4′-fluoro-2′-(1H-tetrazol-5-yl)biphenyl-3-yl)-3-(2-chlorophenyl)urea] and `CC(C)(C)c1ccccc1Oc1ccc(-c2ccc(Cl)cc2-c2nnn[nH]2)cc1NC(=O)Nc1ccccc1Cl` [Example 198, 1-(4-(2-tert-butylphenoxy)-4′-chloro-2′-(1H-tetrazol-5-yl)biphenyl-3-yl)-3-(2-chlorophenyl)urea] are within 1.5-fold of each other in IC50: 1860 nM for the first, 1490 nM for the second.

First: Cc1ccc(NC(=O)Nc2cc(-c3ccc(F)cc3-c3nnn[nH]3)ccc2Oc2ccccc2C(C)(C)C)cc1 [Example 197, 1-(4-(2-tert-butylphenoxy)-4′-fluoro-2′-(1H-tetrazol-5-yl)biphenyl-3-yl)-3-p-tolylurea]
Second: Cc1ccc(NC(=O)Nc2cc(-c3ccc(Cl)cc3-c3nnn[nH]3)ccc2Oc2ccccc2C(C)(C)C)cc1 [Example 199, 1-(4-(2-tert-butylphenoxy)-4′-chloro-2′-(1H-tetrazol-5-yl)biphenyl-3-yl)-3-p-tolylurea]
The IC50 of the first is 2.2-fold higher: 200 nM for the first, 90 nM for the second. The second is the more potent here.

Going from `CC(C)(C)c1ccccc1Oc1ccc(-c2cncc(C(=O)O)c2)cc1NC(=O)Nc1ccc(OC(F)(F)F)cc1` [Example 266, 5-(4-(2-tert-butylphenoxy)-3-(3-(4-(trifluoromethoxy)phenyl)ureido)phenyl)nicotinic acid] to `Cc1ccc(NC(=O)Nc2cc(-c3cc(F)ccc3C(=O)O)ccc2OC(CCC(F)(F)F)c2ccccc2Cl)cc1` (stereo not shown) [Example 267, 4′-(1-(2-Chlorophenyl)-4,4,4-trifluorobutoxy)-5-fluoro-3′-(3-(p-tolyl)ureido)-[1,1′-biphenyl]-2-carboxylic acid], the IC50 falls from 2150 nM to 390 nM (5.5-fold). The second is the more potent here.

biological target: T1, IDO; experiment: Kynurenine assay in IFN-γ-stimulated Hela cells; type: cell-based; details: 20 h, read-out: Hela Kyurenine (IC50)
Procedure, shortened: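 Hela cells adhered 5-6 h, then received inhibitor (top dose 30 μM, 3-fold dilutions to 1.5 nM) plus 100 ng/mL human IFN-γ to induce IDO, 20 h at 37° C. TCA added, 30 min at 50° C hydrolyses N-formylkynurenine to kynurenine. Supernatant mixed with Ehrlich reagent, 10 min RT, absorbance 490 nm.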

Compared with `O=C(Nc1ccccc1Cl)Nc1cc(-c2cccc(C(=O)O)c2)ccc1Oc1ccccc1C(F)(F)F` [Example 259, 3′-(3-(2-chlorophenyl)ureido)-4'-(2-(trifluoromethyl)phenoxy) biphenyl-3-carboxylic acid], `O=C(Nc1ccc(OC(F)(F)F)cc1)Nc1cc(-c2cc(Cl)cc(C(=O)O)c2)ccc1Oc1ccccc1Cl` [Example 260, 5-chloro-4′-(2-chlorophenoxy)-3′-(3-(4-(trifluoromethoxy)phenyl)ureido)biphenyl-3-carboxylic acid] is 2.5-fold higher in IC50: 2210 nM for the first, 5590 nM for the second.

Going from `CC(C)(C)c1ccccc1Oc1ccc(-c2cc(C(=O)O)ccc2F)cc1NC(=O)Nc1ccc(OC(F)(F)F)cc1` [Example 261, 4′-(2-tert-butylphenoxy)-6-fluoro-3′-(3-(4-(trifluoromethoxy)phenyl)ureido) biphenyl-3-carboxylic acid] to `CC(C)(C)c1ccccc1Oc1ccc(-c2ccc(C(=O)O)cc2)cc1NC(=O)Nc1ccc(OC(F)(F)F)cc1` [Example 265, 4′-(2-tert-butylphenoxy)-3′-(3-(4-(trifluoromethoxy)phenyl)ureido)biphenyl-4-carboxylic acid], the IC50 rises from 420 nM to 3460 nM (8.2-fold).

Compared with `CC(C)(C)c1ccccc1Oc1ccc(-c2cc(Cl)cc(C(=O)O)c2)cc1NC(=O)Nc1ccc(OC(F)(F)F)cc1` [Example 262, 4′-(2-tert-butylphenoxy)-5-chloro-3′-(3-(4-(trifluoromethoxy)phenyl)ureido) biphenyl-3-carboxylic acid], `COc1ccc(-c2cnc(Oc3ccccc3C(C)(C)C)c(NC(=O)Nc3ccc(C)cc3)c2)cc1C(=O)O` [Example 335] is 13-fold lower in IC50: 4560 nM for the first, 340 nM for the second.

`Cc1ccc(NC(=O)Nc2cc(-c3ccc(C(=O)O)cc3)cnc2Oc2ccccc2)cc1` [Example 338] was tested, and the IC50 was 87900 nM.
